In one assay the test system is H1975 cells. The experiment in a line: AO staining analysis. The format is cell-based. Particulars: T001-10027877 0.5, 1, 2 µM, AZD9291 1 µM.
Another assay deals with A549 cells. The assay can be described thus: cells. The assay is classed as cell-based. Particulars: Homo sapiens, A549, 72 h, read-out: IC50 A549.

Consider `C=CC(=O)Nc1cc(Nc2nccc(-c3cn(C)c4ccccc34)n2)c(OC)cc1N(C)CCN(C)C` [AZD9291], for which, in the assay on H1975 cells, the “cell morphology / induction of apoptosis (AO staining)” value is “induced significant shrinkage of the cell membrane”. Further, the IC50 in the assay on A549 cells was 4.95 µM.

The values above are taken from PMC11351453 (BMC Chemistry, 2024).
